{"source": "patent US8415357B2", "about": "(Canbas Co., Ltd., priority 2007, dated 2013)", "data": [{"tested_on": "Jurkat cells", "test": "Adaptation to G2 cell cycle arrest (G1 increment) in X-ray pre-arrested Jurkat cells, flow cytometry", "assay_type": "cell-based, human", "conditions": "Homo sapiens, Jurkat, 24 h, Table 1; concentration causing half-maximal increase of % cells in G1 phase (G1 increment); Jurkat pre-arrested by 10 Gy X-ray, 24 hours with compound", "experimental": "(§1) Phenotype-based screening was used to measure the ability of compounds of the invention to cause adaptation to G2 cell cycle arrest in G2-arrested cells. Adaptation to G2 cell cycle arrest and re-entry into the cell cycle can result in death of the previously G2-arrested cell, or suppression (inhibition) of further proliferation of the previously G2-arrested cell. In a non-limiting embodiment, the ability to cause adaptation to G2 cell cycle arrest was measured by contacting cells in which G2 arrest had been induced by irradiation (e.g., gamma (γ) radiation or X-ray radiation), with compounds of the invention at various concentrations and, for each compound at each concentration, determining the percentage of cells that escaped G2 arrest and re-entered the cell cycle, by determining the percentage of cells in G1 phase. The IC50 value for each compound was calculated as the dosage (usually in μM) that caused half-maximal increase of the percentage of cells in G1 phase (the G1 increment) measured for that compound. Certain invention compounds were initially identified by phenotype-based screening of small molecule libraries for activity against G2-arrested cells as described above.\n(§2) Jurkat cells (a human T cell lymphoma-derived cell line) were arrested at the G2 phase by X-ray irradiation at 10 Gy, and cultured for 24 hours in 10% fetal calf serum (FCS)/RPMI1640 at 37° C. with 5% CO2/air. (FCS was from Equitech-Bio, Kerrville, Tex., and RPMI1640 was from Sigma-Aldrich, St. Louis, Mo.) Test compounds were added to the medium at the indicated doses, and the cells were cultured under the conditions described above, for an additional 24 hours before harvesting.\n(§3) Harvested cells were stained with Krishan's buffer (0.1% sodium citrate, 50 μg/ml propidium iodide, 20 μg/ml RNase A, 0.5% Nonidet P-40) and analyzed by flow cytometry (BD Biosciences, Franklin Lakes, N.J.) to identify the cell stage of each cell in the sample. Cells in G1 phase were identified by having […] (2N) DNA content.\n(§4) The IC50 value for each compound was calculated as the dosage showing half maximal activity to induce the increase of the percentage of cells in G1 phase (the G1 increment). IC50 values were used to measure the activity of compounds and to determine structure-activity relationships.\n(§5) Pre-arrested Jurkat cells were prepared as described in Example 1. Briefly, Jurkat cells were subjected to X-ray irradiation at a dose of 10 Gy, and cultured for 24 hours in 10% fetal calf serum (FCS)/RPMI1640 at 37° C. with 5% CO2/air, after which time cells were exposed to various concentrations of test compounds, and cultured under the conditions described above for an additional 24 hours before harvesting. Harvested cells were stained with Krishan's buffer (0.1% sodium citrate, 50 μg/ml propidium iodide, 20 μg/ml RNase A, 0.5% Nonidet P-40) and analyzed by flow cytometry (BD Biosciences, Franklin Lakes, N.J.) to identify the cell stage of each cell in the sample. Cells in G1 phase were identified by having […] (2N) DNA content.\n(§6) The IC50 value for each compound was calculated as the dosage (concentration in μM) that caused half-maximal increase of the percentage of cells in G1 phase (the G1 increment) measured for that test compound. Table 1 below presents the structure, mass, 1H NMR values, and […] values for representative compounds.\n(§7) The IC50 value for each compound was calculated as the dosage (concentration in μM) that caused half-maximal increase of the percentage of cells in G1 phase (the G1 increment) measured for that test compound. Table 2 below presents structures, IUPAC name, molecular formula, ID number (“SCID”), mass, 1H NMR values, and IC50 values for representative compounds. Table 3 presents structures, IUPAC name, molecular formula, ID number (“SCID”), mass, 1H NMR values, and IC50 values for further representative compounds.", "units": {"IC50": "nM"}, "values": [{"smiles": "COc1nc(NN2C(=O)C(C)=C(C)C2=O)ccc1C(F)(F)F", "note": "[Compound S00451]", "IC50": 60000}, {"smiles": "CC1=C(C)C(=O)N(N(C)c2cc(Cl)cc(Cl)c2)C1=O", "note": "[Compound S00587]", "IC50": 2500}, {"smiles": "CC1=C(C)C(=O)N(Nc2cccc3ccccc23)C1=O", "note": "[Compound S00475]", "IC50": 3750}, {"smiles": "CC1=C(C)C(=O)N(Nc2cc(C(F)(F)F)ccc2C)C1=O", "note": "[Compound S00512]", "IC50": 5000}, {"smiles": "CC1C(=O)N(Nc2ccc(C(F)(F)F)cn2)C(=O)C1Sc1ccccc1", "note": "(stereo not drawn) [Compound S00145]", "IC50": 30000}, {"smiles": "CC1=C(C)C(=O)N(Nc2ccc3c(c2)C(C)(C)CCC3(C)C)C1=O", "note": "[Compound S00698]", "IC50": 5000}, {"smiles": "CC1=C(C)C(=O)N(Nc2ccc3ccccc3c2)C1=O", "note": "[Compound S00651]", "IC50": 10000}, {"smiles": "CC1=C(C)C(=O)N(Nc2ccc(C(F)(F)F)cc2Cl)C1=O", "note": "[Compound S00699]", "IC50": 10000}, {"smiles": "O=C1C2=C(CCCC2)C(=O)N1Nc1ccc(C(F)(F)F)cn1", "note": "[Compound S00200]", "IC50": 5000}, {"smiles": "CC1=C(C)C(=O)N(Nc2ccc(Br)c(C(F)(F)F)c2)C1=O", "note": "[Compound S00516, 1-{[4-bromo-3-(trifluoromethyl)phenyl]amino}-3,4-dimethylazoline-2,5-dione]", "IC50": 1250}, {"smiles": "COC1=C(C)C(=O)N(Cc2ccc(C(F)(F)F)cc2)C1=O", "note": "[Compound S00410]", "IC50": 10000}, {"smiles": "CSCc1cc(C(F)(F)F)ccc1NN1C(=O)C(C)=C(C)C1=O", "note": "[Compound S00499]", "IC50": 5000}, {"smiles": "CC1=C(C)C(=O)N(Nc2ccc(C(F)(F)F)cc2Br)C1=O", "note": "[Compound S00624]", "IC50": 10000}, {"smiles": "CC1=C(C)C(=O)N(Nc2ccc3ccccc3n2)C1=O", "note": "[Compound S00362]", "IC50": 5000}, {"smiles": "CC1=C(C)C(=O)N(Oc2ccc(C)cc2)C1=O", "note": "[Compound S00628]", "IC50": 60000}, {"smiles": "CC1=C(C)C(=O)N(Nc2ccc(C)c(C)c2)C1=O", "note": "[Compound S00452]", "IC50": 10000}, {"smiles": "CC1=C(C)C(=O)N(Nc2cccc(C(F)(F)F)c2)C1=O", "note": "[Compound S00305]", "IC50": 5000}, {"smiles": "CC1=C(C)C(=O)N(Nc2nc3ccccc3s2)C1=O", "note": "[Compound S00295]", "IC50": 5000}, {"smiles": "CC1=C(C)C(=O)N(Nc2cc(C(F)(F)F)cc(C)n2)C1=O", "note": "[Compound S00069]", "IC50": 5000}, {"smiles": "CC1=C(C)C(=O)N(Nc2ccc(C)cc2C)C1=O", "note": "[Compound S00294]", "IC50": 5000}]}, {"tested_on": "Jurkat cells", "test": "Adaptation to G2 cell cycle arrest (G1 increment) in X-ray pre-arrested Jurkat cells, flow cytometry", "assay_type": "cell-based, human", "conditions": "Homo sapiens, Jurkat, 24 h, Table 2; concentration causing half-maximal increase of % cells in G1 phase (G1 increment); Jurkat pre-arrested by 10 Gy X-ray, 24 hours with compound", "experimental": "as §1, §2, §3, §4, §5, §6, §7", "units": {"IC50": "nM"}, "values": [{"smiles": "CC1=C(C)C(=O)N(Nc2ccc(C(F)(F)F)c(-c3ccc(Cl)cc3)n2)C1=O", "note": "[Compound S01371, 1-{[6-(4-chlorophenyl)-5-(trifluoromethyl)(2-pyridyl)]amino}-3,4-dimethylazoline-2,5-dione]", "IC50": 625}, {"smiles": "CC1=C(C)C(=O)N(Nc2cc(CN3CCN(C(=O)c4ccccc4Cl)CC3)c3ccc(Br)cc3n2)C1=O", "note": "[Compound S01878, 1-{[7-bromo-4-({4-[(2-chlorophenyl)carbonyl]piperazinyl}methyl) (2-quinolyl)]amino}-3,4-dimethylazoline-2,5-dione]", "IC50": 234}, {"smiles": "CC1=C(C)C(=O)N(Nc2ccc(C(F)(F)F)c(-c3ccc(F)c(Cl)c3)n2)C1=O", "note": "[Compound S01313, 1-{[6-(3-chloro-4-fluorophenyl)-5-(trifluoromethyl)(2-pyridyl)]amino}-3,4-dimethylazoline-2,5-dione]", "IC50": 300}, {"smiles": "COc1ccc(C(=O)N2CCN(Cc3cc(NN4C(=O)C(C)=C(C)C4=O)nc4cc(Br)ccc34)CC2)cc1", "note": "[Compound S01801, 1-{[7-bromo-4-({4-[(4-methoxyphenyl)carbonyl]piperazinyl}methyl) (2-quinolyl)]amino}-3,4-dimethylazoline-2,5-dione]", "IC50": 625}, {"smiles": "CC1=C(CCC(=O)N(C)c2ccccc2)C(=O)N(Nc2ccc(C(F)(F)F)c(Cl)n2)C1=O", "note": "[Compound S01759, 3-(1-{[6-chloro-5-(trifluoromethyl)(2-pyridyl)]amino}-4-methyl-2,5-dioxoazolin-3-yl)-N-methyl-N-phenylpropanamide]", "IC50": 625}, {"smiles": "CC1=C(C)C(=O)N(Nc2ccc(Br)c(C(F)(F)F)c2)C1=O", "note": "[Compound S00516, 1-{[4-bromo-3-(trifluoromethyl)phenyl]amino}-3,4-dimethylazoline-2,5-dione]", "IC50": 625}, {"smiles": "CC1=C(C)C(=O)N(N(C)c2ccc(C(F)(F)F)c(Br)n2)C1=O", "note": "[Compound S01007, 1-{[6-bromo-5-(trifluoromethyl)(2-pyridyl)]methylamino}-3,4-dimethylazoline-2,5-dione]", "IC50": 120}, {"smiles": "CC1=C(C)C(=O)N(Nc2ccc(Br)c3ccccc23)C1=O", "note": "[Compound S00942, 1-[(4-bromonaphthyl)amino]-3,4-dimethylazoline-2,5-dione]", "IC50": 625}, {"smiles": "CC1=C(C)C(=O)N(Nc2cc(CN3CCN(C(=O)c4ccc(F)cc4)CC3)c3ccc(Br)cc3n2)C1=O", "note": "[Compound S01877, 1-{[7-bromo-4-({4-[(4-fluorophenyl)carbonyl]piperazinyl}methyl) (2-quinolyl)]amino}-3,4-dimethylazoline-2,5-dione]", "IC50": 468}, {"smiles": "CC(=O)OCc1cc(NN2C(=O)C(C)=C(C)C2=O)nc2cc(Br)ccc12", "note": "[Compound S01047, {2-[(3,4-dimethyl-2,5-dioxoazolinyl)amino]-7-bromo-4-quinolyl}methylacetate]", "IC50": 625}, {"smiles": "CC1=C(C)C(=O)N(Nc2nc(Cl)cc3ccccc23)C1=O", "note": "[Compound S01098, 1-[(3-chloroisoquinolyl)amino]-3,4-dimethylazoline-2,5-dione]", "IC50": 450}, {"smiles": "CC1=C(C)C(=O)N(Nc2cc(Cl)c3cccc(Cl)c3n2)C1=O", "note": "[Compound S01005, 1-[(4,8-dichloro(2-quinolyl))amino]-3,4-dimethylazoline-2,5-dione]", "IC50": 200}, {"smiles": "COc1ccccc1C(=O)N1CCN(Cc2cc(NN3C(=O)C(C)=C(C)C3=O)nc3cc(Br)ccc23)CC1", "note": "[Compound S01879, 1-{[7-bromo-4-({4-[(2-methoxyphenyl)carbonyl]piperazinyl}methyl) (2-quinolyl)]amino}-3,4-dimethylazoline-2,5-dione]", "IC50": 78}, {"smiles": "CC1=C(C)C(=O)N(Nc2ccc(C(F)(F)F)c(Cc3ccccc3)n2)C1=O", "note": "[Compound S01762, 3,4-dimethyl-1-{[6-benzyl-5-(trifluoromethyl)(2-pyridyl)]amino}azoline-2,5-dione]", "IC50": 625}]}, {"tested_on": "Jurkat cells", "test": "Adaptation to G2 cell cycle arrest (G1 increment) in X-ray pre-arrested Jurkat cells, flow cytometry", "assay_type": "cell-based, human", "conditions": "Homo sapiens, Jurkat, 24 h, Table 3; concentration causing half-maximal increase of % cells in G1 phase (G1 increment); Jurkat pre-arrested by 10 Gy X-ray, 24 hours with compound", "experimental": "as §1, §2, §3, §4, §5, §6, §7", "units": {"IC50": "nM"}, "values": [{"smiles": "CCOCC1=C(C)C(=O)N(Nc2ccc(C(F)(F)F)c(Cl)n2)C1=O", "note": "[Compound S02366, 1-{[6-chloro-5-(trifluoromethyl) (2-pyridyl)]amino}-3-(ethoxymethyl)-4-methylazoline-2,5-dione]", "IC50": 40}, {"smiles": "COCCOCC1=C(C)C(=O)N(Nc2ccc(C(F)(F)F)c(Cl)n2)C1=O", "note": "[Compound S03742, 1-{[6-chloro-5-(trifluoromethyl)(2-pyridyl)]amino}-3-[(2-methoxyethoxy)methyl]-4-methylazoline-2,5-dione]", "IC50": 120}, {"smiles": "CC1=C(COC(C)(C)C)C(=O)N(Nc2ccc(C(F)(F)F)c(Cl)n2)C1=O", "note": "[Compound S03873, 4-[(tert-butoxy)methyl]-1-{[6-chloro-5-(trifluoromethyl)(2-pyridyl)]amino}-3-methylazoline-2,5-dione]", "IC50": 20}, {"smiles": "CC1=C(CCC2(C)OCCO2)C(=O)N(Nc2ccc(C(F)(F)F)c(Cl)n2)C1=O", "note": "[Compound S03456, 1-{[6-chloro-5-(trifluoromethyl) (2-pyridyl)]amino}-4-methyl-3-[2-(2-methyl (1,3-dioxolan-2-yl))ethyl]azoline-2,5-dione]", "IC50": 156}, {"smiles": "CCC(C)OC(=O)CCC1=C(C)C(=O)N(Nc2ccc(C(F)(F)F)c(Cl)n2)C1=O", "note": "(stereo not drawn) [Compound S02264, Methylpropyl 3-(1-{[6-chloro-5-(trifluoromethyl) (2-pyridyl)]amino}-4-methyl-2,5-dioxoazolin-3-yl) propanoate]", "IC50": 40}]}]}
